Converted amounts (≈) assume the structure as drawn. “And” between values parts separate entries of the source, which are not always exact repeats. Equal values may be shown once. Read-outs that look alike come from different tables or passages of the source.
Tests used:
[1] = test system: Aspergilus fumigatus clinical strain; test: Antifungal susceptibility testing, M38-A microdilution method (filamentous fungi); type: cell-based, Aspergillus fumigatus; settings: for inhibition at 0.09 µg/mL / inhibition at 0.19 µg/mL / inhibition at 0.39 µg/mL / inhibition at 0.78 µg/mL / inhibition at 1.56 µg/mL / inhibition at 3.12 µg/mL / inhibition at 6.25 µg/mL / inhibition at 12.5 µg/mL / inhibition at 25 µg/mL / inhibition at 50 µg/mL: Aspergillus fumigatus, read-out: % of growth inhibition
Protocol: (§1) Cabanillasin activity was tested against different fungal human pathogens: ascomycetes yeasts (Candida albicans ATCC 90029, Candida Glabrata ATCC 90030, Candida krusei ATCC 6258 and Candida lusitaniae CBS 6936), basidiomycetes yeasts (Cryptococcus neoformans clinical strain), ascomycetes filamentous fungi (Aspergilus fumigatus clinical strain, Fusarium oxysporum clinical strain) and zygomycetes filamentous fungi (Rhizopus oryzae environemental strain) by the M38-A microdilution method with RPMI 1640 medium (RPMI 1640, MOPS 160 mM, glucose 18 g/L, pH 7) as recommended in the […]. The NCCLS M27-A2 broth microdilution method (NCCLS) was used when yeasts were tested.
(§2) Yeasts and filamentous inoculi were prepared on YPD medium (yeast extract 10 g/L, peptone 10 g/L and glucose 20 g/L) and Malt medium (malt extract 20 g/L) respectively. The densities of inoculi were adjusted by dilution in RPMI 1640 broth to a value ranged from 5.10^2 to 5.10^3 CFU/mL for yeasts isolates and 5.10^3 to 5.10^4 CFU/mL for filamentous fungi. Microdilution trays (96 U-bottom shaped) containing 190 µL fungal inoculum were added with 10 µL Cabanillasin solution (final concentration ranging from 50 to 0.098 mg/L for all fungi). After inoculation of the trays, all microdilution trays were incubated at 35°C in ambient air. The culture absorbance was measured at 600 nm, 24 h and 48 h after the beginning of the experiments for the yeasts and 48 h and 72 h after the beginning of the experiments for filamentous fungi and Cryptococcus neoformans. The activity results correspond to a percentage of growth inhibition ((1-Abs600 nm culture with Cabanillasin)/ Abs600 nm culture without Cabanillasin) x 100.
(§3) The IC50 value is the concentration at which inhibition of growth is equal to 50%. MICs for Candida species were determined at 24 h and 48 h and corresponded to 100% of growth inhibition. Amphotericin B was provided as standard (final concentration ranging from 16 to 0.03 mg/L for all fungi). Experiments were done in duplicate.

[2] = test system: Fusarium oxysporum clinical strain; test: as above; type: cell-based; settings: for inhibition at 0.09 µg/mL / inhibition at 0.19 µg/mL / inhibition at 0.39 µg/mL / inhibition at 0.78 µg/mL / inhibition at 1.56 µg/mL / inhibition at 3.12 µg/mL / inhibition at 6.25 µg/mL / inhibition at 12.5 µg/mL / inhibition at 25 µg/mL / inhibition at 50 µg/mL: read-out: % of growth inhibition
Protocol: as §1, §2, §3

[3] = test system: Rhizopus oryzae environemental strain; test: as above; type: cell-based; settings: for inhibition at 0.09 µg/mL / inhibition at 0.19 µg/mL / inhibition at 0.39 µg/mL / inhibition at 0.78 µg/mL / inhibition at 1.56 µg/mL / inhibition at 3.12 µg/mL / inhibition at 6.25 µg/mL / inhibition at 12.5 µg/mL / inhibition at 25 µg/mL / inhibition at 50 µg/mL: Rhizopus arrhizus, read-out: % of growth inhibition
Protocol: as §1, §2, §3

[4] = test system: PC-3 (Human prostatic carcinoma); test: Cytotoxicity test (MTT); type: cell-based; settings: 48 h exposure, triplicate
Protocol: (§4) One hundred microliters of the cell suspension of PC-3 (Human prostatic carcinoma) or hTERT HME-1 (Human normal mammary epithelium) prepared in RPMI + 10% SVF + 1% glutamine were inoculated into 96-well plates. The inoculating cell number was 3500 cells per well for PC-3 and 7500 cells per well for hTERT HME-1. The microplates were incubated at 37°C for 24h with 5% of CO2. After 24 h of culture, the medium was removed by aspiration and 100 µl of RPMI + 10% SVF + 1% glutamine with 8 concentrations of Cabanillasin (from 0.78 µg/mL to 100 µg/mL) were added to each well. Microplates were incubated at 37°C for 48 h with 5% of CO2. After 48h of culture, the medium was removed by aspiration and 100 µL of RPMI + MTT (0.5 mg/mL) were added to each wells. Microplates were inoculated at 37°C during 150 min. Next, all the medium was removed by inverting and tapping the plate and 100 µL of DMSO were added in each plate. The spectrophotometric absorbance was then measured at 550 nm. The Lethal Dose 50 correspond to DL50 = ((50-(Y2-((Y1-Y2)/(X1-X2))*X2))/ ((Y1-Y2)/(X1-X2))). […] Experiments were done in triplicate.

[5] = test system: hTERT HME-1 (Human normal mammary epithelium); test: Cytotoxicity test (MTT); type: cell-based; settings: 48 h exposure, triplicate
Protocol: as §4

`CC(=O)NC(=N)NCCCCNC(=N)NCCCCNC(=N)NCCCCNC(=N)NCCCCN` [Cabanillasin] gave an inhibition at 0.09 µg/mL ([1]; 48 h incubation) of 0%, an inhibition at 0.09 µg/mL ([1]; 72 h incubation) of 0% and an inhibition at 0.19 µg/mL ([1]; 48 h incubation) of 0%. The inhibition at 0.19 µg/mL ([1]; 72 h incubation) was 0%, the inhibition at 0.39 µg/mL ([1]; 48 h incubation) was 0% and the inhibition at 0.39 µg/mL ([1]; 72 h incubation) was 0%. The inhibition at 0.78 µg/mL ([1]; 48 h incubation) was 0%, the inhibition at 0.78 µg/mL ([1]; 72 h incubation) was 0% and the inhibition at 1.56 µg/mL ([1]; 48 h incubation) was 0%. It also gave an inhibition at 1.56 µg/mL ([1]; 72 h incubation) of 0%, an inhibition at 3.12 µg/mL ([1]; 48 h incubation) of 0% and an inhibition at 3.12 µg/mL ([1]; 72 h incubation) of 0%. For the same compound, the inhibition at 6.25 µg/mL ([1]; 48 h incubation) was 0%, the inhibition at 6.25 µg/mL ([1]; 72 h incubation) was 0% and the inhibition at 12.5 µg/mL ([1]; 48 h incubation) was 0%. It also gave an inhibition at 12.5 µg/mL ([1]; 72 h incubation) of 0%, an inhibition at 25 µg/mL ([1]; 48 h incubation) of 0% and an inhibition at 25 µg/mL ([1]; 72 h incubation) of 0%. The inhibition at 50 µg/mL ([1]; 48 h incubation) was 65.2%, the inhibition at 50 µg/mL ([1]; 72 h incubation) was 0% and the activity ([1]; at 48h) was “weak activity”. The activity ([1]; at 72 h) was “no activity”, the inhibition at 0.09 µg/mL ([2]; 48 h incubation) was 0% and the inhibition at 0.09 µg/mL ([2]; 72 h incubation) was 0%. For the same compound, the inhibition at 0.19 µg/mL ([2]; 48 h incubation) was 0%, the inhibition at 0.19 µg/mL ([2]; 72 h incubation) was 0% and the inhibition at 0.39 µg/mL ([2]; 48 h incubation) was 0%. The inhibition at 0.39 µg/mL ([2]; 72 h incubation) was 0%, the inhibition at 0.78 µg/mL ([2]; 48 h incubation) was 0% and the inhibition at 0.78 µg/mL ([2]; 72 h incubation) was 0%. The inhibition at 1.56 µg/mL ([2]; 48 h incubation) was 0%, the inhibition at 1.56 µg/mL ([2]; 72 h incubation) was 0% and the inhibition at 3.12 µg/mL ([2]; 48 h incubation) was 32.1%. It also gave an inhibition at 3.12 µg/mL ([2]; 72 h incubation) of 0%, an inhibition at 6.25 µg/mL ([2]; 48 h incubation) of 68.6% and an inhibition at 6.25 µg/mL ([2]; 72 h incubation) of 48.6%. The inhibition at 12.5 µg/mL ([2]; 48 h incubation) was 71.6%, the inhibition at 12.5 µg/mL ([2]; 72 h incubation) was 56.4% and the inhibition at 25 µg/mL ([2]; 48 h incubation) was 66.6%. The inhibition at 25 µg/mL ([2]; 72 h incubation) was 72.5%, the inhibition at 50 µg/mL ([2]; 48 h incubation) was 80.2% and the inhibition at 50 µg/mL ([2]; 72 h incubation) was 79.8%. The IC50 ([2]; incubation time not stated) was 6.25 µg/mL (≈ 12.2 µM), the inhibition at 0.09 µg/mL ([3]; 48 h incubation) was 0% and the inhibition at 0.09 µg/mL ([3]; 72 h incubation) was 0%. For the same compound, the inhibition at 0.19 µg/mL ([3]; 48 h incubation) was 0%, the inhibition at 0.19 µg/mL ([3]; 72 h incubation) was 0% and the inhibition at 0.39 µg/mL ([3]; 48 h incubation) was 0%. It also gave an inhibition at 0.39 µg/mL ([3]; 72 h incubation) of 0%, an inhibition at 0.78 µg/mL ([3]; 48 h incubation) of 0% and an inhibition at 0.78 µg/mL ([3]; 72 h incubation) of 0%. For the same compound, the inhibition at 1.56 µg/mL ([3]; 48 h incubation) was 0%, the inhibition at 1.56 µg/mL ([3]; 72 h incubation) was 0% and the inhibition at 3.12 µg/mL ([3]; 48 h incubation) was 0%. It also gave an inhibition at 3.12 µg/mL ([3]; 72 h incubation) of 0%, an inhibition at 6.25 µg/mL ([3]; 48 h incubation) of 0% and an inhibition at 6.25 µg/mL ([3]; 72 h incubation) of 0%. The inhibition at 12.5 µg/mL ([3]; 48 h incubation) was 0%, the inhibition at 12.5 µg/mL ([3]; 72 h incubation) was 0% and the inhibition at 25 µg/mL ([3]; 48 h incubation) was 0%. For the same compound, the inhibition at 25 µg/mL ([3]; 72 h incubation) was 0%, the inhibition at 50 µg/mL ([3]; 48 h incubation) was 40.7% and the inhibition at 50 µg/mL ([3]; 72 h incubation) was 0%. For the same compound, the activity ([3]; at 48h) was “weak activity”, the activity ([3]; at 72 h) was “no activity” and the “LD 50” value [4] was 46.83 ± 1.55 µg/mL and 46.83 µg/mL. The “LD 50” value [5] was 24.46 ± 2.51 µg/mL and 24.46 µg/mL.

Source: patent EP2468718A1, “Cabanillasin, a new antifungal compound, produced by entomopathogenic xenorhabdus cabanillasii” (Nosopharm, priority 2010, dated 2012)
